Measured values published in patent publication US20240041042A1, “1-(PYRIDYL)-5-AZINYLPYRAZOLE DERIVATIVES, AND THEIR USE FOR CONTROL OF UNDESIRED PLANT GROWTH” (Bayer Aktiengesellschaft, priority 2020, published 2024).
Read-outs that look alike come from different tables or passages of the source.

What was measured:
Format in all cases: in vivo
Brassica napus (BRSNW) = settings: 80 g/ha, crop plant compatibility, in comparison to untreated controls
Method in brief: (§1)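 Crop injury rated visually in percent against untreated plants roughly 3 weeks after treatment (0% no effect, 100% plants dead). Compounds, as WP or EC with 0.5% additive in 600 l/ha water, were applied to the covering soil right after sowing; greenhouse growth. Suffixes a, b, c denote different dosages.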

Glycine max (GLXMA) = settings: pre-emergence, crop plant compatibility, in comparison to untreated controls
Method in brief: as §1

[1] = tested on: Triticum aestivum (TRZAS); settings: pre-emergence, crop plant compatibility, in comparison to untreated controls
Method in brief: as §1

Oryza sativa (ORYSA) [2] = settings: pre-emergence, crop plant compatibility, in comparison to untreated controls
Method in brief: as §1

Zea mays (ZEAMX) [3] = settings: pre-emergence, crop plant compatibility, in comparison to untreated controls
Method in brief: as §1

[4] = tested on: Triticum aestivum (TRZAS); settings: crop plant compatibility, effect vs untreated controls
Method in brief: (§2)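 Foliar application at the one-leaf stage: WP/EC formulation, 0.5% additive, 600 l/ha water. Greenhouse-grown in sandy loam. Endpoint is visual % injury relative to untreated controls at about 3 weeks.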

Oryza sativa (ORYSA) [5] = settings: crop plant compatibility
Method in brief: as §2

Zea mays (ZEAMX) [6] = settings: for Post-emergence action against ZEAMX in %: crop plant compatibility, 80 g/ha, effect vs untreated controls
Method in brief: as §2

Setaria viridis (SETVI) [7] = test: Pre-emergence herbicidal action against SETVI; settings: dosage 320 g/ha
Method in brief: (§3)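 Seeds sown in pots and covered with soil; WP or EC formulations sprayed onto the soil surface at 600 l/ha water with 0.5% additive, at 320 g/ha or lower. Greenhouse growth for about 3 weeks, then visual scoring as % effect against untreated controls (100% = plants dead).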

[8] = tested on: Alopecurus myosuroides (ALOMY); test: Pre-emergence herbicidal action against ALOMY; settings: 320 g/ha; scored visually after about 3 weeks; 100% = plants have died
Method in brief: as §3

[9] = tested on: Amaranthus retroflexus (AMARE); test: Post-emergence herbicidal action against AMARE
Method in brief: (§4)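 Doses of 320 g/ha or lower, suffixes a, b and c marking different dosages, were applied post-emergence at the one-leaf stage in 600 l/ha water with 0.5% additive. Damage was assessed visually after about 3 weeks in the greenhouse.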

[10] = tested on: Alopecurus myosuroides (ALOMY); test: Post-emergence herbicidal action against ALOMY; settings: visual rating about 3 weeks after treatment vs untreated controls (100% = plants have died, 0% = like control plants)
Method in brief: as §4

Lolium rigidum (LOLRI) [11] = test: Pre-emergence herbicidal action against LOLRI; settings: dosage 320 g/ha
Method in brief: as §3

[12] = tested on: Verconica persica (VERPE); test: Pre-emergence herbicidal action against VERPE; settings: dosage 320 g/ha
Method in brief: as §3

[13] = tested on: Matricaria inodora (MATIN); test: Pre-emergence herbicidal action against MATIN
Method in brief: as §3

Viola tricolor (VIOTR) [14] = test: Pre-emergence herbicidal action against VIOTR; settings: 320 g/ha, Viola tricolor
Method in brief: as §3

Avena fatua (AVEFA) [15] = test: Post-emergence herbicidal action against AVEFA; settings: visual rating about 3 weeks after treatment
Method in brief: as §4

Setaria viridis (SETVI) [16] = test: Post-emergence herbicidal action against SETVI
Method in brief: as §4

[17] = tested on: Echinochloa crus-galli (ECHCG); test: Pre-emergence herbicidal action against ECHCG; settings: dosage 320 g/ha
Method in brief: as §3

[18] = tested on: Echinochloa crus-galli (ECHCG); test: Post-emergence herbicidal action against ECHCG
Method in brief: as §4

[19] = tested on: Polygonum convolvulus (POLCO); test: Post-emergence herbicidal action against POLCO; settings: dosage 320 g/ha
Method in brief: as §4

[20] = tested on: Amaranthus retroflexus (AMARE); test: Pre-emergence herbicidal action against AMARE; settings: visual scoring after about 3 weeks vs untreated controls
Method in brief: as §3

[21] = tested on: Polygonum convolvulus (POLCO); test: Pre-emergence herbicidal action against POLCO; settings: dosage 320 g/ha
Method in brief: as §3

[22] = tested on: Matricaria inodora (MATIN); test: Post-emergence herbicidal action against MATIN; settings: dosage 320 g/ha
Method in brief: as §4

Avena fatua (AVEFA) [23] = test: Pre-emergence herbicidal action against AVEFA; settings: 320 g/ha, visual scoring after about 3 weeks vs untreated controls
Method in brief: as §3

[24] = tested on: Pharbitis purpurea (PHBPU); test: Post-emergence herbicidal action against PHBPU
Method in brief: as §4

Lolium rigidum (LOLRI) [25] = test: Post-emergence herbicidal action against LOLRI; settings: dosage 320 g/ha
Method in brief: as §4

Viola tricolor (VIOTR) [26] = test: Post-emergence herbicidal action against VIOTR
Method in brief: as §4

[27] = tested on: Abutilon theophrasti (ABUTH); test: Post-emergence herbicidal action against ABUTH; settings: 320 g/ha, visual rating about 3 weeks after treatment vs untreated controls (100% = plants have died, 0% = like control plants)
Method in brief: as §4

[28] = 80 g/ha, effect in comparison to untreated controls
[29] = 320 g/ha, effect in comparison to untreated controls
[30] = 20 g/ha, effect vs untreated controls
[31] = 80 g/ha, visual rating about 3 weeks after treatment vs untreated controls (100% = plants have died, 0% = like control plants)
[32] = 320 g/ha, visual rating about 3 weeks after treatment

Pre-emergence action against BRSNW in % (Brassica napus (BRSNW)) [%]	Pre-emergence action against GLXMA in % (Glycine max (GLXMA); 80 g/ha) [%]	Pre-emergence action against TRZAS in % ([1]; 80 g/ha) [%]	Pre-emergence action against ORYSA in % (Oryza sativa (ORYSA) [2]; 80 g/ha) [%]	Pre-emergence action against ORYSA in % (Oryza sativa (ORYSA) [2]; 320 g/ha) [%]	Pre-emergence action against ZEAMX in % (Zea mays (ZEAMX) [3]; 80 g/ha) [%]	Pre-emergence action against ZEAMX in % (Zea mays (ZEAMX) [3]; 320 g/ha) [%]	Post-emergence action against TRZAS in % ([4]; 80 g/ha) [%]	Post-emergence action against ORYSA in % (Oryza sativa (ORYSA) [5]; [28]) [%]	Post-emergence action against ORYSA in % (Oryza sativa (ORYSA) [5]; [29]) [%]	Post-emergence action against ZEAMX in % (Zea mays (ZEAMX) [6]) [%]	Post-emergence action against TRZAS in % ([4]; 20 g/ha) [%]	Post-emergence action against ORYSA in % (Oryza sativa (ORYSA) [5]; [30]) [%]	SMILES	Pre-emergence action against SETVI in % (Setaria viridis (SETVI) [7]) [%]	Pre-emergence action against ALOMY [8] [%]	Post-emergence action against AMARE in % [9, 31] [%]	Post-emergence action against ALOMY in % ([10]; 80 g/ha) [%]	Pre-emergence action against LOLRI in % (Lolium rigidum (LOLRI) [11]) [%]	Pre-emergence action against VIOTR in % (Viola tricolor (VIOTR) [14]) [%]	Pre-emergence action against AMARE in % ([20]; 320 g/ha) [%]	also measured
0	0	0	0	0	0	0	20	10	20	20	–	–	O=C(O)CNC(=O)COc1nn(-c2ccnc(F)c2)c(-c2ccc(F)nc2)c1Br [III-26]	–	–	–	–	–	–	–	Pre-emergence action against TRZAS in % ([1]; 320 g/ha): 20%
0	20	10	10	–	10	–	–	20	–	10	10	10	COC(=O)CCOC(=O)COc1nn(-c2ccccn2)c(-c2cncc(F)c2)c1C1CC1 [Example I-71]	100	90	90	90	90	–	–	Post-emergence action against ZEAMX in % (crop plant compatibility) (Zea mays (ZEAMX) [6]; 20 g/ha, ZEAMX, effect in comparison to untreated controls): 0%
20	20	20	–	–	–	–	–	0	0	–	–	–	COC(=O)CNC(=O)CSc1nn(-c2ccccn2)c(-c2cncnc2)c1Br [Example I-65]	90	80	–	–	90	100	90	Pre-emergence action against VERPE in % [12]: 80%; Pre-emergence action against MATIN in % ([13]; dosage 80 g/ha): 80%; Pre-emergence action against MATIN in % ([13]; dosage 320 g/ha): 90%; Post-emergence action against AVEFA in % (Avena fatua (AVEFA) [15]; 320 g/ha): 80%; Post-emergence action against SETVI in % (Setaria viridis (SETVI) [16]; dosage 320 g/ha): 80%; Pre-emergence action against ECHCG in % [17]: 90%; Post-emergence action against ECHCG in % ([18]; dosage 80 g/ha): 80%; Post-emergence action against ECHCG in % ([18]; dosage 320 g/ha): 80%; Post-emergence action against POLCO in % [19]: 80%; Post-emergence action against AMARE in % [9, 32]: 80%; Pre-emergence action against POLCO in % [21]: 90%
10	0	10	0	20	0	0	–	20	–	–	10	10	O=C(O)COc1nn(-c2ccccn2)c(-c2cncc(F)c2)c1C1CC1 [Example I-72]	90	100	80	90	100	90	90	–
20	–	0	0	–	–	–	0	0	10	–	–	–	O=C(O)CSc1nn(-c2ccccn2)c(-c2ccc(F)nc2)c1Br [Example I-69]	100	–	–	–	80	90	90	Pre-emergence action against MATIN in % ([13]; dosage 320 g/ha): 90%; Post-emergence action against MATIN in % [22]: 80%; Pre-emergence action against AVEFA in % (Avena fatua (AVEFA) [23]): 80%; Post-emergence action against PHBPU in % ([24]; dosage 80 g/ha): 80%; Post-emergence action against PHBPU in % ([24]; dosage 320 g/ha): 80%; Post-emergence action against AVEFA in % (Avena fatua (AVEFA) [15]; 80 g/ha): 80%; Post-emergence action against AVEFA in % (Avena fatua (AVEFA) [15]; 320 g/ha): 100%; Post-emergence action against SETVI in % (Setaria viridis (SETVI) [16]; dosage 80 g/ha): 80%; Post-emergence action against SETVI in % (Setaria viridis (SETVI) [16]; dosage 320 g/ha): 80%; Pre-emergence action against ECHCG in % [17]: 90%; Pre-emergence action against GLXMA in % (Glycine max (GLXMA); 320 g/ha): 20%; Post-emergence action against LOLRI in % (Lolium rigidum (LOLRI) [25]): 80%; Post-emergence action against AMARE in % [9, 32]: 80%; Post-emergence action against VIOTR in % (Viola tricolor (VIOTR) [26]; 80 g/ha): 80%; Post-emergence action against VIOTR in % (Viola tricolor (VIOTR) [26]; 320 g/ha): 80%; Pre-emergence action against AMARE in % ([20]; 80 g/ha): 80%; Post-emergence action against ALOMY in % ([10]; 320 g/ha): 90%; Post-emergence action against ABUTH in % [27]: 80%
